Assay results from patent publication US20150246025A1, “2-PHENYL-5-HETEROCYCLYL-TETRAHYDRO-2H-PYRAN-3-AMINE COMPOUNDS FOR USE IN THE TREATMENT OF DIABETES AND ITS ASSOCIATED DISORDERS” (CADILA HEALTHCARE LIMITED, priority 2012, published 2015).

Assays:
DPP-IV enzyme = target: T1, DPP-IV enzyme (Homo sapiens, UniProt P27487); assay: In vitro DPP-IV inhibitory activity using enzymatic (fluorescence-based) assay; assay type: biochemical; details: soluble human DPP-IV, H-Gly-Pro-AMC 200 μM, pH 7.8, 25° C., 30 min; read-out: % In-vitro DPPIV Inhibition IC50
T1 construct: soluble human proteins (DPP-IV enzyme) produced in a baculovirus expression system; made in house; host or cells: baculovirus expression system (Life Technologies)
T1 sequence (P27487 39-766 limits assumed): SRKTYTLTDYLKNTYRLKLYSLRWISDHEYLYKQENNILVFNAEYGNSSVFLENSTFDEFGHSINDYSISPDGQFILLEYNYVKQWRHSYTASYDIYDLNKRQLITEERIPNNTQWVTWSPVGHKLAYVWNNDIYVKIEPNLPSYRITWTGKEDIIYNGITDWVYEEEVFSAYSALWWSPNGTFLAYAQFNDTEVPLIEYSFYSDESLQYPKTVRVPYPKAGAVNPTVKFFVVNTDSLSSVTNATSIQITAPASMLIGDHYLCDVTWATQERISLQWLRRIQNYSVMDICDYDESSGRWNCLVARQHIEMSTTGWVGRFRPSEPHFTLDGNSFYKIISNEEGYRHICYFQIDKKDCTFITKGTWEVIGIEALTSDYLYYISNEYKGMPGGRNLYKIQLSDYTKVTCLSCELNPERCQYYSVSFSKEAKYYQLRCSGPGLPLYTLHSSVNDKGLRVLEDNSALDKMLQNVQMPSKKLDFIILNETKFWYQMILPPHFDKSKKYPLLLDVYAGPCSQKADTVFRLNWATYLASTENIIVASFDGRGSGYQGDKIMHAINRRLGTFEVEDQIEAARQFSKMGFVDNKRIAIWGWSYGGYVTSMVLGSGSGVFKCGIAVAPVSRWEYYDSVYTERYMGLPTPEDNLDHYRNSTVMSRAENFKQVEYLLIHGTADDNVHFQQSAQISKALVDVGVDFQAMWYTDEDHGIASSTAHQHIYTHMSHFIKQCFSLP
Description: In Vitro DPP-IV Inhibitory Activity Using Enzymatic Assay:
In vitro enzyme (DPP-IV) inhibitory activity was determined using fluorescence-based assay (Anal. Biochem., 200, 352, 1992). The Gly-Pro-AMC was used as a substrate (which is cleaved by the enzymes to release the fluorescent AMC) and soluble human proteins (DPP-IV enzyme) produced in a baculovirus expression system (Life Technologies) was used as the enzyme source. The H-Gly-Pro-AMC (200 μM) was incubated with DPP-IV enzyme in the presence of various concentrations (30 & 100 nM) of test compounds. Reaction was carried out at pH 7.8 (HEPES buffer 25 mM containing 1.0% BSA, 140 mM NaCl, 16 mM MgCl2, 2.8% DMSO) in a total volume of 100 μl at 25° C. for 30 min., in the dark. Reaction was terminated with acetic acid (25 μl of 25% solution). Activity (fluorescence) was measured using Spectra Max fluorometer (Molecular Devices, Sunnyvale Calif.) by exciting at 380 nm and emission at 460 nm.

C57BL/6J mice = assay: In vivo antihyperglycaemic/antidiabetic activity (OGTT), acute single dose 120-min time-course; details: Mus musculus, 2 h; male C57BL/6J mice, acute single dose 0,3 mg/kg po, 120-min time-course, n = 6, Mean ± SEM; read-out: In vivo OGTT C57; % Glucose change
Description: Acute single dose 120-min time-course experiments were carried out in male C57BL/6J mice, age 8-12 weeks, bred in-house. Animals were housed in groups of 6 animals per cage, for a week, in order to habituate them to vivarium conditions (25±4° C., 60-65% relative humidity, 12: 12 h light: dark cycle, with lights on at 7.30 am). All the animal experiments were carried out according to the internationally valid guidelines following approval by the ‘Zydus Research Center animal ethical committee’.
The in-vivo glucose lowering properties of the test compounds were evaluated in C57BL/6J (mild hyperglycemic) animal models as described below. Two days prior to the study, the animals were randomized and divided into groups (n=6), based upon their fed glucose levels. On the day of experiment, food was withdrawn from all the cages, water was given ad-libitum and were kept for overnight fasting. Vehicle (normal saline)/test compounds were administered orally, on a body weight basis. Soon after the 0 min. blood collection from each animal, the subsequent blood collections were done at 30, 60 and 120 or upto 240 min., via retro-orbital route, under light ether anesthesia (Diabetes Obesity Metabolism, 7, 307, 2005; Diabetes, 52, 751, 2003).
Blood samples were centrifuged and the separated serum was immediately subjected for the glucose estimation. Serum for insulin estimation was stored at −70° C. until used for the insulin estimation. The glucose estimation was carried out with DPEC-GOD/POD method (Ranbaxy Fine Chemicals Limited, Diagnostic division, India), using Spectramax-190, in 96-microwell plate reader (Molecular devices Corporation, Sunnyvale, Calif.). […] The AUC and BCAUC obtained from graphs were analyzed for one way ANOVA, followed by Dunnett's post test, using Graph Pad prism software.

| IC50 (DPP-IV enzyme) | Structure (SMILES) | change in vivo at 0.3 mg/kg (C57BL/6J mice) |
| --- | --- | --- |
| < 30 nM | N[C@H]1C[C@@H](N2CC3=C(CN(C(=O)C4CCCCC4)C3)C2)CO[C@@H]1c1cc(F)ccc1F [Compound 26, (5-((3R,5S,6R)-5-amino-6-(2,5-difluorophenyl)tetrahydro-2H-pyran-3-yl)-5,6-dihydropyrrolo[3,4-c]pyrrol-2(1H,3H,4H)-yl)(cyclohexyl)methanone] | -20.1 ± 1.4% |
| < 10 nM | COC(=O)N1CC2=C(C1)CN([C@H]1CO[C@H](c3cc(F)ccc3F)[C@@H](N)C1)C2 [Compound 27, (2R,3S,5R)-2-(2,5-difluorophenyl)-5-(5-(methoxycarbonyl)-5,6-dihydropyrrolo-[3,4-c]pyrrol-2(1H,3H,4H)-yl)tetrahydro-2H-pyran-3-amine] | -13.7 ± 1.2% |
| < 10 nM | CCOC(=O)N1CC2=C(C1)CN([C@H]1CO[C@H](c3cc(F)ccc3F)[C@@H](N)C1)C2 [Compound 28, (2R,3S,5R)-2-(2,5-difluorophenyl)-5-(5-(ethoxycarbonyl)-5,6-dihydropyrrolo[3,4-c]pyrrol-2(1H,3H,4H)-yl)tetrahydro-2H-pyran-3-amine] | -35 ± 6.1% |
| < 30 nM | N[C@H]1C[C@@H](N2CC3=C(C2)CN(S(=O)(=O)C(F)(F)F)C3)CO[C@@H]1c1cc(F)ccc1F [Compound 29, (2R,3S,5R)-2-(2,5-difluorophenyl)-5-(5-((trifluoromethyl)sulfonyl)-5,6-dihydropyrrolo[3,4-c]pyrrol-2(1H,3H,4H)-yl)tetrahydro-2H-pyran-3-amine] | -27.7 ± 3.1% |
| < 30 nM | N[C@H]1C[C@@H](N2CC3=C(C2)CN(S(=O)(=O)c2ccc(F)cc2)C3)CO[C@@H]1c1cc(F)ccc1F [Compound 33, (2R,3S,5R)-2-(2,5-difluorophenyl)-5-(5-((4-fluorophenyl)sulfonyl)-5,6-dihydropyrrolo[3,4-c]pyrrol-2 (1H,3H,4H)-yl)tetrahydro-2H-pyran-3-amine] | -16.8 ± 1.6% |
| < 10 nM | N[C@H]1C[C@@H](N2CC3=C(C2)CN(S(=O)(=O)c2ccc(F)cc2F)C3)CO[C@@H]1c1cc(F)ccc1F [Compound 36, (2R,3S,5R)-2-(2,5-difluorophenyl)-5-(5-((2,4-difluorophenyl)sulfonyl)-5,6-dihydropyrrolo[3,4-c]pyrrol-2(1H,3H,4H)-yl)tetrahydro-2H-pyran-3-amine] | -22.2 ± 2.5% |
| < 30 nM | Cc1ccc(S(=O)(=O)N2CC3=C(CN([C@H]4CO[C@H](c5cc(F)ccc5F)[C@@H](N)C4)C3)C2)cc1 [Compound 37, (2R,3S,5R)-2-(2,5-difluorophenyl)-5-(5-tosyl-5,6-dihydropyrrolo[3,4-c]pyrrol-2(1H,3H,4H)-yl)tetrahydro-2H-pyran-3-amine] | -25.1 ± 3.2% |
| < 10 nM | COc1ccc(S(=O)(=O)N2CC3=C(CN([C@H]4CO[C@H](c5cc(F)ccc5F)[C@@H](N)C4)C3)C2)cc1 [Compound 38, (2R,3S,5R)-2-(2,5-difluorophenyl)-5-(5-((4-methoxyphenyl)sulfonyl)-5,6-dihydropyrrolo[3,4-c]pyrrol-2(1H,3H,4H)-yl)tetrahydro-2H-pyran-3-amine] | -22 ± 2.6% |
| < 10 nM | CC(C)c1ccc(S(=O)(=O)N2CC3=C(CN([C@H]4CO[C@H](c5cc(F)ccc5F)[C@@H](N)C4)C3)C2)cc1 [Compound 39, (2R,3S,5R)-2-(2,5-difluorophenyl)-5-(5-((4-isopropylphenyl)sulfonyl)-5,6-dihydropyrrolo[3,4-c]pyrrol-2(1H,3H,4H)-yl)tetrahydro-2H-pyran-3-amine] | -25.1 ± 3.6% |
| < 30 nM | N[C@H]1C[C@@H](N2CC3=C(C2)CN(S(=O)(=O)c2ccc(C(F)(F)F)cc2)C3)CO[C@@H]1c1cc(F)ccc1F [Compound 40, (2R,3S,5R)-2-(2,5-difluorophenyl)-5-(5-((4-(trifluoromethyl)phenyl)sulfonyl)-5,6-dihydropyrrolo[3,4-c]pyrrol-2(1H,3H,4H)-yl)tetrahydro-2H-pyran-3-amine] | -14 ± 1.5% |
| < 100 nM | CC(=O)N1CC2=C(C1)CN([C@H]1CO[C@H](c3cc(F)ccc3F)[C@@H](N)C1)C2 [Compound 41, (2R,3S,5R)-5-(5-acetyl-5,6-dihydropyrrolo[3,4-c]pyrrol-2(1H,3H,4H)-yl)-2-(2,5-difluorophenyl)tetrahydro-2H-pyran-3-amine] | -6.04 ± 2.6% |
| < 30 nM | N[C@H]1C[C@@H](N2CC3=C(CNC3)C2)CO[C@@H]1c1cc(F)ccc1F [Compound 44, (2R,3S,5R)-2-(2,5-difluorophenyl)-5-(5,6-dihydropyrrolo[3,4-c]pyrrol-2(1H,3H,4H)-yl)tetrahydro-2H-pyran-3-amine] | -12.5 ± 1.5% |

More lines, now with the values behind:

| Structure (SMILES) | IC50 (DPP-IV enzyme) | change in vivo at 0.3 mg/kg (C57BL/6J mice) |
| --- | --- | --- |
| N[C@H]1C[C@@H](N2CC3=C(CN(C(=O)C4CCCC4)C3)C2)CO[C@@H]1c1cc(F)ccc1F [Compound 25, (5-((3R,5S,6R)-5-amino-6-(2,5-difluorophenyl)tetrahydro-2H-pyran-3-yl)-5,6-dihydropyrrolo[3,4-c]pyrrol-2(1H,3H,4H)-yl)(cyclopentyl)methanone] | < 30 nM | -12.2 ± 2.5% |
| CCS(=O)(=O)N1CC2=C(CN([C@H]3CO[C@H](c4cc(F)ccc4F)[C@@H](N)C3)C2)C1 [Compound 30, (2R,3S,5R)-2-(2,5-difluorophenyl)-5-(5-(ethylsulfonyl)-5,6-dihydropyrrolo[3,4-c]pyrrol-2(1H,3H,4H)-yl)tetrahydro-2H-pyran-3-amine] | < 10 nM | -35 ± 1.4% |
| CC(C)S(=O)(=O)N1CC2=C(CN([C@H]3CO[C@H](c4cc(F)ccc4F)[C@@H](N)C3)C2)C1 [Compound 31, (2R,3S,5R)-2-(2,5-difluorophenyl)-5-(5-(isopropylsulfonyl)-5,6-dihydropyrrolo[3,4-c]pyrrol-2(1H,3H,4H)-yl)tetrahydro-2H-pyran-3-amine] | < 10 nM | -28.1 ± 3.2% |
| N[C@H]1C[C@@H](N2CC3=C(C2)CN(S(=O)(=O)c2ccccc2)C3)CO[C@@H]1c1cc(F)ccc1F [Compound 32, (2R,3S,5R)-2-(2,5-difluorophenyl)-5-(5-(phenylsulfonyl)-5,6-dihydropyrrolo[3,4-c]pyrrol-2(1H,3H,4H)-yl)tetrahydro-2H-pyran-3-amine] | < 10 nM | -25.3 ± 3.9% |
| N#Cc1ccc(S(=O)(=O)N2CC3=C(CN([C@H]4CO[C@H](c5cc(F)ccc5F)[C@@H](N)C4)C3)C2)cc1 [Compound 34, 4-((5-((3R,5S,6R)-5-amino-6-(2,5-difluorophenyl)tetrahydro-2H-pyran-3-yl)-5,6-dihydropyrrolo[3,4-c]pyrrol-2(1H,3H,4H)-yl)sulfonyl)benzonitrile] | < 10 nM | -30.1 ± 3.4% |
| N[C@H]1C[C@@H](N2CC3=C(C2)CN(S(=O)(=O)c2ccc(OC(F)(F)F)cc2)C3)CO[C@@H]1c1cc(F)ccc1F [Compound 35, (2R,3S,5R)-2-(2,5-difluorophenyl)-5-(5-((4-(trifluoromethoxy)phenyl)sulfonyl)-5,6-dihydropyrrolo[3,4-c]pyrrol-2(1H,3H,4H)-yl)tetrahydro-2H-pyran-3-amine] | < 30 nM | -20.5 ± 3.8% |
| CC(C)CS(=O)(=O)N1CC2=C(CN([C@H]3CO[C@H](c4cc(F)ccc4F)[C@@H](N)C3)C2)C1 [Compound 42, (2R,3S,5R)-2-(2,5-difluorophenyl)-5-(5-(isobutylsulfonyl)-5,6-dihydropyrrolo[3,4-c]pyrrol-2(1H,3H,4H)-yl)tetrahydro-2H-pyran-3-amine] | < 30 nM | -25.1 ± 2.8% |
| N[C@H]1C[C@@H](N2CC3CS(=O)(=O)CC3C2)CO[C@@H]1c1cc(F)ccc1F (stereo partly drawn) [Compound 43, 5-((3R,5S,6R)-5-amino-6-(2,5-difluorophenyl)tetrahydro-2H-pyran-3-yl)hexahydro-1H-thieno[3,4-c]pyrrole 2,2-dioxide] | < 30 nM | -15.5 ± 3.6% |
